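Following 48 hours of exposure in 96-well plates, responses at five concentrations were used to interpolate endpoints linearly. The concentration for 50% growth inhibition is given as GI50.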 Calls of active or inactive are those of the source. Cut-off read from the data, not from the text of the source: active = GI50 up to about 1.1 µM and inactive = higher. Residues, ends and D or L forms follow the SMILES beside them. *: point of attachment. OBn = c1ccc(CO*)cc1
Key:
Test in all cases: NCI anticancer screen, dose series, 48 h
786-0 = system: 786-0
ACHN = system: ACHN
CAKI-1 = system: CAKI-1
CCRF-CEM = system: CCRF-CEM
DU-145 = system: DU-145
HCC 2998 = system: HCC 2998
HCT-15 = system: HCT-15
HOP-92 = system: HOP-92
Hs-578T = system: Hs-578T
KM12 = system: KM12
LOX IMVI = system: LOX IMVI
MCF7 = system: MCF7
MOLT-4 = system: MOLT-4
NCI-H23 = system: NCI-H23
OVCAR-3 = system: OVCAR-3
OVCAR-4 = system: OVCAR-4
RPMI-8226 = system: RPMI-8226
UACC-257 = system: UACC-257
UO-31 = system: UO-31
A498 = system: A498

SMILES	GI50 (786-0)	GI50 (ACHN)	GI50 (CAKI-1)	GI50 (CCRF-CEM)	GI50 (DU-145)	GI50 (HCC 2998)	GI50 (HCT-15)	GI50 (HOP-92)	GI50 (Hs-578T)	GI50 (KM12)	GI50 (LOX IMVI)	GI50 (MCF7)	GI50 (MOLT-4)	GI50 (NCI-H23)	GI50 (OVCAR-3)	GI50 (OVCAR-4)	GI50 (RPMI-8226)	GI50 (UACC-257)	GI50 (UO-31)	GI50 (A498)
COc1ccc(/C=C2\N=C(N3CCCCC3)NC2=O)cc1	> 100 µM (inactive)	> 100 µM (inactive)	> 100 µM (inactive)	> 100 µM (inactive)	> 100 µM (inactive)	> 100 µM (inactive)	> 100 µM	> 100 µM (inactive)	> 100 µM (inactive)	52.1 µM (inactive)	95.1 µM (inactive)	> 100 µM (inactive)	> 100 µM (inactive)	> 100 µM (inactive)	> 100 µM (inactive)	> 100 µM (inactive)	> 100 µM (inactive)	> 100 µM (inactive)	48.3 µM (inactive)	
COC(=O)CCC12CCC(O1)c1ccccc12 (centres undefined)	> 100 µM (inactive)	> 100 µM (inactive)	> 100 µM (inactive)	> 100 µM (inactive)	> 100 µM (inactive)	> 100 µM (inactive)	> 100 µM	92.5 µM (inactive)		> 100 µM (inactive)	> 100 µM (inactive)	> 100 µM (inactive)	> 100 µM (inactive)	> 100 µM (inactive)		> 100 µM (inactive)	> 100 µM (inactive)	> 100 µM (inactive)	> 100 µM (inactive)	> 100 µM (inactive)
Cc1ccc([S+]([O-])C[C@@]2(C(F)F)NC(=O)NC2=O)cc1 (some centres undefined)	> 100 µM (inactive)	> 100 µM (inactive)	> 100 µM (inactive)	> 100 µM (inactive)	> 100 µM (inactive)	> 100 µM (inactive)	> 100 µM	> 100 µM (inactive)	> 100 µM (inactive)	> 100 µM (inactive)	> 100 µM (inactive)		> 100 µM (inactive)	> 100 µM (inactive)	> 100 µM (inactive)	> 100 µM (inactive)	> 100 µM (inactive)	> 100 µM (inactive)	> 100 µM (inactive)	> 100 µM (inactive)
Cc1cn(C2CC(N)C(CN)O2)c(=O)[nH]c1=O (centres undefined)	> 100 µM (inactive)	> 100 µM (inactive)	> 100 µM (inactive)	> 100 µM (inactive)	> 100 µM (inactive)	> 100 µM (inactive)	> 100 µM	> 100 µM (inactive)	> 100 µM (inactive)	> 100 µM (inactive)		> 100 µM (inactive)	> 100 µM (inactive)	> 100 µM (inactive)	> 100 µM (inactive)	> 100 µM (inactive)	> 100 µM (inactive)	> 100 µM (inactive)	> 100 µM (inactive)	> 100 µM (inactive)
NC(CCC(=O)OCc1ccccc1)C(=O)NC(CCC(=O)OCc1ccccc1)C(=O)O (centres undefined) (H-Glu(OBn)-Glu(OBn)-OH; configuration not given here)	> 100 µM (inactive)	> 100 µM (inactive)	> 100 µM (inactive)	> 100 µM (inactive)	> 100 µM (inactive)	> 100 µM (inactive)	> 100 µM	> 100 µM (inactive)	> 100 µM (inactive)	> 100 µM (inactive)	> 100 µM (inactive)	> 100 µM (inactive)	> 100 µM (inactive)	> 100 µM (inactive)	> 100 µM (inactive)	> 100 µM (inactive)	> 100 µM (inactive)		> 100 µM (inactive)	
CCOC(=O)c1c(NC(=S)Nc2ccc(C)cc2)sc2c1CCN(C)C2	> 100 µM (inactive)	> 100 µM (inactive)	> 100 µM (inactive)	> 100 µM (inactive)	> 100 µM (inactive)		> 100 µM		> 100 µM (inactive)	81.7 µM (inactive)		> 100 µM (inactive)	> 100 µM (inactive)	> 100 µM (inactive)	> 100 µM (inactive)		> 100 µM (inactive)	> 100 µM (inactive)	> 100 µM (inactive)	59 µM (inactive)
COc1cccc(C2c3cc4c(cc3OC(N3CCCC3)C2C)OCO4)c1 (centres undefined)	9.62 µM (inactive)	8.79 µM (inactive)	2.12 µM (inactive)	0.513 µM (active)	16.3 µM (inactive)	11.9 µM (inactive)	4.68 µM	2.83 µM (inactive)	8.3 µM (inactive)	6.01 µM (inactive)	5.71 µM (inactive)	5.85 µM (inactive)		22.8 µM (inactive)	7.48 µM (inactive)		4.85 µM (inactive)	12.1 µM (inactive)	12.1 µM (inactive)	
CN1CC=C(c2c(N)nc(N)[nH]c2=O)CC1	> 100 µM (inactive)	> 100 µM (inactive)	> 100 µM (inactive)	> 100 µM (inactive)	> 100 µM (inactive)		> 100 µM	> 100 µM (inactive)	> 100 µM (inactive)	> 100 µM (inactive)		> 100 µM (inactive)	> 100 µM (inactive)	> 100 µM (inactive)	> 100 µM (inactive)	> 100 µM (inactive)	> 100 µM (inactive)	> 100 µM (inactive)	> 100 µM (inactive)	> 100 µM (inactive)

Reference: ChEMBL document CHEMBL1201862, “PubChem BioAssay data set” (2004)
